Consider 2 molecules from US20140303109A1 (priority 2010, published 2014).

Assay [1] deals with NF-κB DNA binding activity. The assay is described as follows: EMSA for NF-κB DNA binding activity in tumor tissue. Type of assay: in vivo, mice. As to conditions: MIA PaCa-2 tumors. The protocol: Nuclear extracts were prepared from tumor tissue induced by the MIA PaCa-2 cells using an homogenizer with 400 μl of ice cold lysis buffer extracted as described earlier. EMSA was performed using the Odyssey Infrared Imaging System with NF-κβ 1RDye labeled oligonucleotide from LI-COR, Inc. (Lincoln, Nebr.). An NF-Kβ competition control study was conducted using unlabeled NF-Kβ consensus oligonucleotide. The samples were loaded and run at 30 mA for 1 hour. The gel was scanned using Odyssey Infrared Imaging System (LI-COR, Inc.).
On the technique in general: In EMSA bound probe runs differently from free probe, usually more slowly.

The next assay relates to COX-2, PTEN expression. In words: Western blot of COX-2 and PTEN in tumor remnants. The conditions noted are these: MIAPaCa-2 tumors. It is filed as in vivo, mice. The protocol: COX-2, PTEN, and β-actin expression was determined by Western blot.
For orientation: Immunoblotting shows a protein as a band on a membrane.

The subject of a further assay is miR-21. In words: Real-time RT-PCR of miR-21 in PC cell lines. Type of assay: cell-based, human. The conditions noted are these: 72 h; BxPC-3, MIAPaCa-E, MIAPaCa-M. The protocol:
The expression of miRNAs (miRNA-200a, miR-200b, and miR-21) in all three pancreatic cancer cell lines, was measured with a TaqMan MicroRNA Assay kit (Applied Biosystems, Carlsbad, Calif.) following the manufacturer's protocol. […] Total RNA was extracted, and 5 ng of each sample were reverse-transcribed in a method described by Li, et al., Cancer Res., Vol. 69, pages 6704-6712 (2009). Real-time RT-PCR reactions were then carried out in a total volume of 25 μl reaction mixture, as described by Li, et al., id., using Smart Cycler II (Cepheid, Sunnyvale, Calif.). The data were analyzed using Ct method and were normalized by RNU6B expression in each sample.

Assay [2] relates to pancreatospheres of AsPC-1 cells. In words: Sphere formation assay. It is filed as cell-based, human. As to conditions: AsPC-1, varying concentrations. The protocol:
A sphere formation assay was conducted for 1 week (FIG. 19A) and four weeks (FIG. 19B) to examine the effect of the treating agents on the CSC self-renewal capacity of the PC cell line AsPC-1. […] Therefore, it appears that CDF may cause pancreatospheres to be more sensitive to GEM, and as a result, CDF, or the combination of CDF/GEM, would be useful for targeted killing of CSCs.
Furthermore, pretreatment with CDF improved the outcome.

Assay [3] concerns 5-FU+Ox-resistant cancer cells. As to conditions: alone or with 5-FU+Ox or FOLFOX; cited from earlier work.
The next assay relates to MIAPaCa-2 tumors. In words: MIAPaCa-2 subcutaneous xenograft tumor model. As to conditions: CDF or CUR 5 mg/mouse/day intragastric 12 days; GEM 1 mg/mouse i.v. x3. Type of assay: in vivo, mice. The protocol:
Female CB17 SCID mice 4 wks old were purchased from Taconic Farms (Germantown, N.Y.). Small fragments of the MIAPaCa-2 xenograft were implanted subcutaneously and bilaterally into mice. […] Tumor measurements and changes in weight were performed and tissue was stored at −70° C. for RNA and protein extraction.

The test system of assay [4] is BxPC-3 pancreatic cancer cells. In words: MTT assay, BxPC-3 cell growth, 72 h. Type of assay: cell-based, human. As to conditions: various concentrations. The protocol: The concentrations were 10 μM, 20 μM, and 30 μM. After aspiration of growth medium, (3-(4,5-Dimethylthiazol-2-yl)-2,5-diphenyltetrazolium bromide (MTT; 1 mg/ml) was added to the cell cultures, followed by incubation for 3 hours at 37° C. After the cells were crystallized, the MTT was removed and dimethylsulfoxide (DMSO) was added to dissolve the metabolized MTT product. The absorbance was then measured on a Wallac Victor^3 1420 Multi-label counter at 540 nm.
The results are shown on FIG. 5 which is a series of four bar graphs, labeled FIG. 5A through FIG. 5D.
For orientation: Tetrazolium assays rely on reduction of a dye to a coloured formazan, in cell work by metabolically active cells.

The test system of assay [5] is NF-κB DNA binding activity. In words: EMSA for NF-κB DNA binding activity, MIA PaCa-2. Type of assay: cell-based, human. As to conditions: CUR 4 μM, CDF 2 μM.

Regarding `COc1cc(/C=C/C(=O)C(=Cc2ccc(F)c(F)c2)C(=O)/C=C/c2ccc(O)c(OC)c2)ccc1O` [CDF, (1E,6E)-1,7-bis(4-hydroxy-3-methoxyphenyl)hepta-1,6-diene{4(3,4 difluorobenzaldehyde)}-3,5-dione], the “NF-κβ activation in tumor tissue” value in assay [1] is listed as “down-regulated NF-κβ activation”. Further, the “expression of PTEN in tumor remnants” value with COX-2, PTEN expression is recorded as “up-regulated”. The “expression of miR-21” value in the assay on miR-21 was “significant reduction in the expression of miR-21”. In assay [2], the “2nd passage of pancreatospheres” value is given as “inhibited 2nd passage of pancreatospheres in a dose-dependent manner”. Besides, the “reducing and/or reversing chemoresistant colon cancer cells” value in assay [3] is recorded as “superior to naturally-occurring CUR”. The tumor growth result in the assay with MIAPaCa-2 tumors is listed as “significantly inhibited tumor growth”. The cell growth inhibition result in assay [4] is “superior to CUR in inducing cell growth inhibition”.

Take `COc1cc(/C=C/C(=O)CC(=O)/C=C/c2ccc(O)c(OC)c2)ccc1O` [CUR, (1E,6E)-1,7-bis(4-hydroxy-3-methoxyphenyl)hepta-1,6-diene-3,5-dione, reference compound]: in assay [5], the “NF-κB DNA binding activity” value is given as “down-regulation of NF-κB”.
